{
  "source": "patent US4665087A",
  "about": "“1-(carbamyl, thiocarbamyl, and iminocarbamyl)-indoline derivatives” (Ciba-Geigy Corporation, priority 1985, dated 1987)",
  "key": {"[1]": {"test_system": "angiotensin I pressor response", "assay": "inhibition of the angiotensin I pressor response in anesthetized normotensive rats", "assay_type": "in vivo", "settings": "rat, 1.0 mg/kg i.v.", "procedure": "The enzyme renin normally causes specific hydrolysis of the circulating protein renin substrate. This hydrolysis generates angiotensin I, which is further hydrolyzed by the action of said converting enzyme to the potent vasoconstrictor angiotensin II. The inhibition of said enzyme prevents the generation of angiotensin II from I and, therefore, attenuates any pressure response following an angiotensin I challenge.\nThe corresponding in vivo test is performed with male, normotensive rats, which are anesthetized with 100-120 mg/kg i.p. of sodium ethyl-(1-methylpropyl)-malonylthiourea. A femoral artery and saphenous vein are cannulated for direct blood pressure measurement and i.v. administration of angiotensin I and compounds of this invention. After the basal blood pressure is stabilized, pressor response is to 3 challenge of 0.33 μg/kg of angiotensin I i.v., in 5 minutes intervals, are obtained. Such pressure responses are again obtained 5, 10, 15, 30 and 60 minutes after either i.v., or p.o. administration (stomach tube) of the compounds to be tested, and compared with the initial responses. […]"}, "[2]": {"target": "T1, angiotensin-converting enzyme (Oryctolagus cuniculus, UniProt P12822)", "T1 construct": "freshly prepared from lungs of adult male rabbits; from tissue; host or cells: lungs of adult male rabbits", "T1 sequence (P12822 34-1310)": "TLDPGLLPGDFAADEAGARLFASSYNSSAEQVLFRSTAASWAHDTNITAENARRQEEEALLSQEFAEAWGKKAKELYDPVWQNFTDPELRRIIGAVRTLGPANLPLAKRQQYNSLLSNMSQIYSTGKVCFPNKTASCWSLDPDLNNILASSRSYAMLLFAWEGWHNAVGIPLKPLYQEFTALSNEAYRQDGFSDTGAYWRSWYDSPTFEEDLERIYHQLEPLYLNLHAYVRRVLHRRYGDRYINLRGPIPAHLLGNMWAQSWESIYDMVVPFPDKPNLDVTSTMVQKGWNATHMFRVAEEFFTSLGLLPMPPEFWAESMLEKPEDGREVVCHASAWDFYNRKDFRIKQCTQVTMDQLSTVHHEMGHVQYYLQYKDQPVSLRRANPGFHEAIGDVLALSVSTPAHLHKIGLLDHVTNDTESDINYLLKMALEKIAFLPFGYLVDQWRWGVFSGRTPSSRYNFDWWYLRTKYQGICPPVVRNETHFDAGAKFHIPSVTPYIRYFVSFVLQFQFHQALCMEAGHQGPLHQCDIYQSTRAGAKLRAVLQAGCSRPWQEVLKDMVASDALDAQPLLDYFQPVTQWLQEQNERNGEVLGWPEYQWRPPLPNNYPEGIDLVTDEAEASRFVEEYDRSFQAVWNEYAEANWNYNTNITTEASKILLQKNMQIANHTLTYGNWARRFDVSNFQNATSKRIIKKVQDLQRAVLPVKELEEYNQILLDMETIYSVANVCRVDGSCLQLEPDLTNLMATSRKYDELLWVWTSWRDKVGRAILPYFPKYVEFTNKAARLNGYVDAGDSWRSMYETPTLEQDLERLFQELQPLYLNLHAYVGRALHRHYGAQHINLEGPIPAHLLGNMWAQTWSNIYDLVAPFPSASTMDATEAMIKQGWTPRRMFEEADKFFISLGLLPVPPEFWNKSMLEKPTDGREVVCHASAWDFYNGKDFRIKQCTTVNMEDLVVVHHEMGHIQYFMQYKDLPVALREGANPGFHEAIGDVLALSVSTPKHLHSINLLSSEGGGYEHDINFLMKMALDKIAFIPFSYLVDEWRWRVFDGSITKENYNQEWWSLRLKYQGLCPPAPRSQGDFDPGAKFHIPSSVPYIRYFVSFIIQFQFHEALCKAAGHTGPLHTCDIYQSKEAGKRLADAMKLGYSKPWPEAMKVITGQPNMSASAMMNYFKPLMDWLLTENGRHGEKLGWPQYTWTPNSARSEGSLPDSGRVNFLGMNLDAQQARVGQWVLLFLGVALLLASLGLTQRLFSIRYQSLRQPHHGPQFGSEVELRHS", "assay": "in vitro inhibition of the angiotensin-converting enzyme", "assay_type": "biochemical, rabbit", "procedure": "Biophys. Acta 293, 451 (1973). According to this method said compounds are dissolved at about 1 mM concentrations in phosphate buffer, externally cooled with ice. To these solutions various μl amounts of 1 mM of histidyl-leucine in phosphate buffer are added, followed by 100 μl of 4mM hippuryl-histidyl-leucine in phosphate buffer and 50 μl of the angiotensin-converting enzyme, which is freshly prepared from lungs of adult male rabbits in Tris buffer, containing potassium and magnesium chloride, as well as sucrose. The solutions are incubated at 37° C. for 30 minutes and combined with 0.75 ml or 0.6 N aqueous sodium hydroxide to stop further reaction. Then 100 μl of o-phthalaldehyde are added at room temperature, and 10 minutes later 100 μl of 6N hydrochloric acid. These samples are read against water in a spectrophotometer set at 360 nm, and the optical densities thereof estimated. They are corrected for the standard curve via a conversion factor expressing nanomoles of histidyl-leucine formed during the 30 minute incubation period. The results are plotted against drug concentration to determine the IC50, i.e., the drug concentration which gives half the activity of the control sample containing no drug. Again, representative members of the compounds of this invention are very effective in this in vitro test system, down to IC50 values as low as 5 nM (5×10^-9 M)."}},
  "note": "pIC50: −log10 of the molar value. Structures can show the parent of a compound that is named as a salt.",
  "data": [
    {"smiles": "NCCCCN(C[C@@H](CCc1ccccc1)C(=O)O)C(=O)N1c2ccccc2C[C@H]1C(=O)O", "note": "[Example 9, 1S-[(R)-N-(2-carboxy-4-phenylbutyl)-N-(4-aminobutyl)carbamoyl]-2,3-dihydroindole-2-carboxylic acid disodium salt]", "values": [
      {"measurement": "inhibition of the angiotensin I induced hypertension", "setting": "[1]", "result": "virtually completely inhibits"},
      {"measurement": "pIC50", "setting": "[2]", "result": "~8.22"}
    ]}
  ]
}
